# Measured values reported in paper PMC12249957, “Molecular Hybrids of Thiazolidinone: Bridging Redox Modulation and Cancer Therapy” (International Journal of Molecular Sciences, 2025).
# Columns and labels:
# [1] = target: insulin-like growth factor-1 receptor (IGF-1R); set-up: method as in PMID 20178321; conditions: read-out: IC50, IGF-1R inhibition; cited from earlier work
# [2] = test system: normal (HFF-1) and cancerous cells (HepG2 and A549); test: Summary of selectivity toward cancer cells (MTS viability, normal vs cancerous cells); type: cell-based, human
# Protocol: (§1) The MTS assay was employed in the current study to evaluate the in vitro effects of thiazolidinone derivatives (TZDs-1, 5, 6, and 7) on the cellular viability of the HFF-1, HepG2, and A549 cell lines following incubation for 24 and 48 h. Using the MTS assay allows for the quantitative measurement of how TZDs affect cell viability after a certain period of treatment. The 24- and 48-hour incubation periods are useful for observing either immediate and delayed cytotoxicity or effects on cell growth, providing more comprehensive data on the potential therapeutic or toxic properties of thiazolidinone derivatives.
# (§2) HFF-1, HepG2, and A549 were cultured in DMEM (Sigma-Aldrich, St. Louis, MO, USA) medium complemented with 10% fetal bovine serum (FBS) (Sigma, Suffolk, UK), streptomycin ([…]), and penicillin (100 units/mL) (Sigma, Suffolk, UK) in a cell culture incubator (5% CO2 at 37 °C).
# (§3) Thiazolidinone derivatives (TZDs-1, 5, 6, and 7) were prepared via dissolution in 10% DMSO and 8 serial dilutions and assessed starting from 5000 to 39 µg/mL. A CellTiter 96® AQueous One Solution Cell Proliferation Assay (MTS kit, Promega, Madison, WI, USA) was used to evaluate the cell viability of TZDs on the cells. Briefly, all cells were seeded into 96-well plates with a seeding density of 1.5 × 10^4 cells per well. After 24 h, cells adhered, and then, TZD derivatives were added, and plates were incubated in a cell culture incubator with 5% CO2 at 37 °C for 24 and 48 h. Completed DMEM was used as the positive control, and 0.1% Triton X-100 was used as the negative control. After incubation time, cells were washed with sterile phosphate-buffered saline, pH 7.4 (PBS), and then, a mixture of complete DMEM medium and MTS reagent was added to each well (100 µL of DMEM medium + 20 µL of MTS reagent). Finally, the plates were incubated for 3 h in a cell culture incubator. The absorbance at 492 nm was recorded using a Cytation ™ 3 Cell Imaging Multi-Mode Reader (BIOTEK Instruments Inc., Winooski, VT, USA). The percentage of cellular viability was calculated using the following equation:Cell Viability (%) = (S − T)/(H − T) × 100 where S is the absorbance of the cells treated with the applied compounds, T is the absorbance of the positive control, and H is the absorbance of the negative control. The results are presented as the mean ± SD of at least three independent measurements.
# [3] = set-up: method as in doi:10.1016/j.molstruc.2024.139348; conditions: DPPH; unit inferred; cited from earlier work
# [4] = MTS cell viability assay, HepG2; type: cell-based; conditions: human, HepG2 cells; for viability: concentrations of ≥1250 µg/mL, time not stated
# Protocol: as §1
# (§4) All solvents used in the preparation of thiazolidinone derivatives were obtained in pure form from Sigma-Aldrich (St. Louis, MO, USA) and Thermo Fisher Scientific (Waltham, MA, USA). All other chemicals used herein were of analytical grade and were used without further purification. To separate and confirm the purity of thiazolidinone derivatives, column chromatography on silica gel (0.063–0.2 mm) and thin layer chromatography (TLC) with aluminum silica gel F254 were used. Human foreskin fibroblasts (HFF-1) (ATCC: SCRC-1041), hepatoblastoma cell line (HepG2) (ATCC: HB-8065), and human lung cancer cell line (A549) (ATCC: CCL-185) were used in this study to evaluate the cytotoxicity of the tested compounds. Distilled water for experiment preparation was generated using a Milli-Q® IQ 7005 Purification System (Millipore SAS, Molsheim, France).
# as §2, §3
# [5] = MTS cell viability assay, HFF-1; type: cell-based, human; conditions: human, HFF-1 cells (foreskin fibroblasts)
# Protocol: as §1, §4, §2, §3
# [6] = MTS cell viability assay, A549; type: cell-based; conditions: human, A549 cells
# Protocol: as §1, §4, §2, §3
# [7] = DPPH radical-scavenging assay (antioxidant activity); type: biochemical
# Protocol: In this study, the antioxidant activity of the newly synthesized thiazolidinone derivative 5 was evaluated, and its IC50 value was compared with those of the parent compound, thiazolidinone 1; previously reported derivatives 6 and 7; and the reference antioxidant, ascorbic acid. To ensure a valid comparison, all compounds were assessed under identical conditions using the DPPH (2,2-diphenyl-1-picrylhydrazyl) radical-scavenging assay.
# The antioxidant activity of thiazolidinone derivative 5 was evaluated under conditions similar to those reported in our previous work for thiazolidinone derivatives (1, 6, and 7) using the DPPH assay (2,2-diphenyl-1-picrylhydrazyl). The concentration needed to get rid of 50% of free radicals is called IC50 (half-maximal inhibitory concentration) (μg/mL). The value of the IC50 is determined by plotting antioxidant activity against the concentration employing the equation below:%Antioxidant activity = (Acontrol − Asample/Acontrol) × 100 where Acontrol is the absorbance of the DPPH solution without the sample, and Asample is the absorbance with the tested compound. These percentage inhibition values are then plotted against the logarithm of the compound concentrations to generate a dose–response curve. […]
# HFF-1 cells = test: MTS cell viability assay, HFF-1; type: cell-based, human; conditions: 48 h, 1250 µg/mL
# Protocol: as §1, §4, §2, §3
SMILES,"Selectivity Toward Cancer Cells ([2]; 24 h, 1250 µg/mL)","Selectivity Toward Cancer Cells ([2]; 48 h, 1250 µg/mL)",IC50 of antioxidant activity (Figure 3) [3],"viability at 24 h, 1250 µg/mL ([4]; 24 h)","viability at 48 h, 1250 µg/mL [4]","viability at 24 h, 1250 µg/mL ([5]; 24 h)","viability at 48 h, 1250 µg/mL [5]","viability at 24 h, 1250 µg/mL ([6]; 24 h)","viability at 48 h, 1250 µg/mL [6]",also measured
"O=C1NC(=O)C(=Cc2ccccc2)S1 [5-benzylidenethiazolidine-2,4-dione]",,,,,,,,,,IC50 [1]: 0.057 µM
COc1cc(/C=N/N=C2\SCC(=O)N2Cc2ccc([N+](=O)[O-])cc2)cc(OC)c1OC [TZD-7],Moderate (better selectivity),High,200 µg/mL,96.4%,~23%,110%,> 94%,70%,82.3%,"viability at 24 h, 39 µg/mL ([5]; 24 h, 39 µg/mL): 135%"
"COc1ccc(CN2C(=O)CSC2=NN=Cc2cc(OC)c(OC)c(OC)c2)cc1 [TZD-5, 3-(4-methoxybenzyl)-2-((3,4,5-trimethoxybenzylidene)hydrazineylidene) thiazolidin-4-one]",,,,,,,,,,"Selectivity Toward Cancer Cells ([2]; 24 h, 2500 µg/mL): Moderate (better selectivity); Selectivity Toward Cancer Cells ([2]; 48 h, 2500 µg/mL): Moderate; viability at 24 h, 2500 µg/mL ([4]; 24 h, 2500 µg/mL): 63%; viability at 48 h, 2500 µg/mL ([4]; 2500 µg/mL): 57%; viability at 24 h, 2500 µg/mL ([5]; 24 h, 2500 µg/mL): 97%; viability at 48 h, 2500 µg/mL ([5]; 2500 µg/mL): 48%; viability at 24 h, 2500 µg/mL ([6]; 24 h, 2500 µg/mL): 95.8%; viability at 48 h, 2500 µg/mL ([6]; 2500 µg/mL): 55%; IC50 of antioxidant activity (DPPH) [7]: 24.4 µg/mL"
COc1cc(/C=N/N=C2\SCC(=O)N2Cc2ccccc2)cc(OC)c1OC [TZD-6],Low (high toxicity to normal cells),Low,111 µg/mL,25%,12%,2%,1 to 2%,13%,9%,"viability at 24 h, 156 µg/mL ([4]; 24 h, 156 µg/mL): 76%; viability at 24 h, 5000 µg/mL ([4]; 24 h, 5000 µg/mL): 35%; viability at 48 h, 2500 µg/mL ([4]; 2500 µg/mL): 7%; viability [4]: < 25%; HFF-1 Viability (%) (HFF-1 cells): 1–2%; viability at 24 h, 312 µg/mL ([5]; 24 h, 312 µg/mL): 70%; viability at 48 h, 2500 µg/mL ([5]; 2500 µg/mL): 1 to 2%; viability at 24 h, 156 µg/mL ([6]; 24 h, 156 µg/mL): 78%; viability at 24 h, 5000 µg/mL ([6]; 24 h, 5000 µg/mL): 10%; viability at 48 h, 2500 µg/mL ([6]; 2500 µg/mL): 13%; viability ([6]; concentrations of ≥1250 µg/mL, time not stated): < 25%"
"O=C1O[C@H]([C@@H](O)CO)C(O)=C1O [ascorbic acid, reference compound]",,,,,,,,,,IC50 of antioxidant activity (DPPH) [7]: 11.76 µg/mL
"O=C1NC(=O)C(=Cc2ccco2)S1 [5-(furan-2-ylmethylene)thiazolidine-2,4-dione]",,,,,,,,,,IC50 [1]: 0.061 µM
"COc1cc(C=NNC2=NC(=O)CS2)cc(OC)c1OC [TZD-1, 2-(2-(3,4,5-trimethoxybenzylidene) hydrazineyl)thiazol-4(5H)-one]",Low (high toxicity to normal cells),Low,263 µg/mL,53.2%,21.9%,6.45%,15.3%,75.6%,70.6%,viability [4]: < 25%
